The values below are quoted from earlier work in patent US11344598B2, “Herbal nanoformulations for treating psoriasis and other skin conditions” (Sirbal Ltd., priority 2016, dated 2022).

The conditions of the series: in words.

On to `CCC(=O)O[C@]1(C(=O)CCl)[C@@H](C)C[C@H]2[C@@H]3CCC4=CC(=O)C=C[C@]4(C)[C@@]3(F)[C@@H](O)C[C@@]21C` [Clobetasol propionate, clobetasol propionate], for which the solubility in water entry is recorded as “insoluble in water”.
